The record followed here is ChEMBL document CHEMBL4359841, “Late-Stage Functionalization of Platensimycin Leading to Multiple Analogues with Improved Antibacterial Activity in Vitro and in Vivo” (2019).

The source made the active and inactive calls. The rule behind the calls is not given here.

This assay relates to Staphylococcus aureus. Kind of assay: Inhibition of FabB/FabF in methicillin-resistant Staphylococcus aureus assessed as antibacterial activity at 5 ug/disk after 18 hrs by agar disk diffusion method. On the technique in general: Agar diffusion results depend on both activity and mobility in agar.
Regarding `CCSC1=C[C@]23C[C@H]4C[C@H](O[C@@]4(C)C2)[C@H]3[C@](C)(CCC(=O)Nc2c(O)ccc(C(=O)O)c2O)C1=O`, the “antibacterial activity (disk diffusion, qualitative)” value (shortened to “antibacterial activity”) was “Active”.

For `C[C@]12C[C@@]34C=C(Sc5cccc(C#CC6CC6)c5)C(=O)[C@@](C)(CCC(=O)Nc5c(O)ccc(C(=O)O)c5O)[C@@H]3[C@H](C[C@@H]1C4)O2`, the “antibacterial activity” value was “Active”.

For the compound `C[C@]12C[C@@]34C=C(Sc5ccc(C#CC6(O)CCCCC6)cc5)C(=O)[C@@](C)(CCC(=O)Nc5c(O)ccc(C(=O)O)c5O)[C@@H]3[C@H](C[C@@H]1C4)O2`, the “antibacterial activity” value was “Active”.

Take `C[C@]12C[C@@]34C=C(Sc5ccc(-c6ccc(C=O)cc6)cc5)C(=O)[C@@](C)(CCC(=O)Nc5c(O)ccc(C(=O)O)c5O)[C@@H]3[C@H](C[C@@H]1C4)O2`: the “antibacterial activity” value was “Active”.

Regarding `COc1ccc(SC2=C[C@]34C[C@H]5C[C@H](O[C@@]5(C)C3)[C@H]4[C@](C)(CCC(=O)Nc3c(O)ccc(C(=O)O)c3O)C2=O)cc1`, the “antibacterial activity” value is “Active”.

With `CCN(CC)CC#Cc1cccc(SC2=C[C@]34C[C@H]5C[C@H](O[C@@]5(C)C3)[C@H]4[C@](C)(CCC(=O)Nc3c(O)ccc(C(=O)O)c3O)C2=O)c1`, the “antibacterial activity” value is “Active”.

Consider `CC(C)(C)NC(=O)/C=C/c1ccc(SC2=C[C@]34C[C@H]5C[C@H](O[C@@]5(C)C3)[C@H]4[C@](C)(CCC(=O)Nc3c(O)ccc(C(=O)O)c3O)C2=O)cc1`, for which the “antibacterial activity” value was “Active”.

In the case of `CC(C)(C)OC(=O)/C=C/c1cccc(SC2=C[C@]34C[C@H]5C[C@H](O[C@@]5(C)C3)[C@H]4[C@](C)(CCC(=O)Nc3c(O)ccc(C(=O)O)c3O)C2=O)c1`, the “antibacterial activity” value is “Active”.

For the compound `C[C@]12C[C@@]34C=C(Sc5cccc(-c6ccco6)c5)C(=O)[C@@](C)(CCC(=O)Nc5c(O)ccc(C(=O)O)c5O)[C@@H]3[C@H](C[C@@H]1C4)O2`, the “antibacterial activity” value was “Active”.

Turning to `COc1ccccc1-c1cccc(SC2=C[C@]34C[C@H]5C[C@H](O[C@@]5(C)C3)[C@H]4[C@](C)(CCC(=O)Nc3c(O)ccc(C(=O)O)c3O)C2=O)c1`, the “antibacterial activity” value is “Active”.

As to `Cc1ccc(C#Cc2cccc(SC3=C[C@]45C[C@H]6C[C@H](O[C@@]6(C)C4)[C@H]5[C@](C)(CCC(=O)Nc4c(O)ccc(C(=O)O)c4O)C3=O)c2)cc1`, the “antibacterial activity” value is “Active”.

Consider `C[C@]12C[C@@]34C=C(Sc5ccc(C(=O)O)cc5)C(=O)[C@@](C)(CCC(=O)Nc5c(O)ccc(C(=O)O)c5O)[C@@H]3[C@H](C[C@@H]1C4)O2`, for which the “antibacterial activity” value was “Active”.

As to `C[C@]12C[C@@]34C=C(Sc5c(F)c(F)c(F)c(F)c5F)C(=O)[C@@](C)(CCC(=O)Nc5c(O)ccc(C(=O)O)c5O)[C@@H]3[C@H](C[C@@H]1C4)O2`, the “antibacterial activity” value was “Active”.

With `C[C@]12C[C@@]34C=C(Sc5cccs5)C(=O)[C@@](C)(CCC(=O)Nc5c(O)ccc(C(=O)O)c5O)[C@@H]3[C@H](C[C@@H]1C4)O2`, the “antibacterial activity” value was “Active”.

`CCCCCC#Cc1cccc(SC2=C[C@]34C[C@H]5C[C@H](O[C@@]5(C)C3)[C@H]4[C@](C)(CCC(=O)Nc3c(O)ccc(C(=O)O)c3O)C2=O)c1`: the “antibacterial activity” value is “Active”.

With `C[C@]12C[C@@]34C=C(Sc5ccc(-c6ccco6)cc5)C(=O)[C@@](C)(CCC(=O)Nc5c(O)ccc(C(=O)O)c5O)[C@@H]3[C@H](C[C@@H]1C4)O2`, the “antibacterial activity” value was “Active”.

As to `C[C@]12C[C@@]34C=C(Sc5ccc(C#Cc6ccc(C(=O)O)cc6)cc5)C(=O)[C@@](C)(CCC(=O)Nc5c(O)ccc(C(=O)O)c5O)[C@@H]3[C@H](C[C@@H]1C4)O2`, the “antibacterial activity” value is “Active”.

Regarding `C[C@]12C[C@@]34C=C(Sc5ccc(-c6ccccc6)cc5)C(=O)[C@@](C)(CCC(=O)Nc5c(O)ccc(C(=O)O)c5O)[C@@H]3[C@H](C[C@@H]1C4)O2`, the “antibacterial activity” value was “Active”.

Take `CNC(=O)/C=C/c1cccc(SC2=C[C@]34C[C@H]5C[C@H](O[C@@]5(C)C3)[C@H]4[C@](C)(CCC(=O)Nc3c(O)ccc(C(=O)O)c3O)C2=O)c1`: the “antibacterial activity” value was “Active”.

`C=CCSC1=C[C@]23C[C@H]4C[C@H](O[C@@]4(C)C2)[C@H]3[C@](C)(CCC(=O)Nc2c(O)ccc(C(=O)O)c2O)C1=O`: the “antibacterial activity” value is “Active”.

On to `CCCCC#Cc1ccc(SC2=C[C@]34C[C@H]5C[C@H](O[C@@]5(C)C3)[C@H]4[C@](C)(CCC(=O)Nc3c(O)ccc(C(=O)O)c3O)C2=O)cc1`, for which the “antibacterial activity” value was “Active”.

As to `C[C@]12C[C@@]34C=C(Sc5cccc(C#Cc6ccc(F)cc6)c5)C(=O)[C@@](C)(CCC(=O)Nc5c(O)ccc(C(=O)O)c5O)[C@@H]3[C@H](C[C@@H]1C4)O2`, the “antibacterial activity” value is “Active”.

With `COc1ccccc1-c1ccc(SC2=C[C@]34C[C@H]5C[C@H](O[C@@]5(C)C3)[C@H]4[C@](C)(CCC(=O)Nc3c(O)ccc(C(=O)O)c3O)C2=O)cc1`, the “antibacterial activity” value was “Active”.

Consider `Cc1ccc(SC2=C[C@]34C[C@H]5C[C@H](O[C@@]5(C)C3)[C@H]4[C@](C)(CCC(=O)Nc3c(O)ccc(C(=O)O)c3O)C2=O)c(C)c1`, for which the “antibacterial activity” value is “Active”.

Take `C[C@]12C[C@@]34C=C(Sc5cccc(Br)c5)C(=O)[C@@](C)(CCC(=O)Nc5c(O)ccc(C(=O)O)c5O)[C@@H]3[C@H](C[C@@H]1C4)O2`: the “antibacterial activity” value was “Active”.

In the case of `C[C@]12C[C@@]34C=C(Sc5cccc(C#Cc6cccc(F)c6)c5)C(=O)[C@@](C)(CCC(=O)Nc5c(O)ccc(C(=O)O)c5O)[C@@H]3[C@H](C[C@@H]1C4)O2`, the “antibacterial activity” value was “Active”.

With `CN(C)C(=O)/C=C/c1cccc(SC2=C[C@]34C[C@H]5C[C@H](O[C@@]5(C)C3)[C@H]4[C@](C)(CCC(=O)Nc3c(O)ccc(C(=O)O)c3O)C2=O)c1`, the “antibacterial activity” value was “Active”.

Regarding `C[C@]12C[C@@]34C=C(Sc5ccc(-c6cccnc6)cc5)C(=O)[C@@](C)(CCC(=O)Nc5c(O)ccc(C(=O)O)c5O)[C@@H]3[C@H](C[C@@H]1C4)O2`, the “antibacterial activity” value is “Active”.

For `CC(C)(C)C#Cc1cccc(SC2=C[C@]34C[C@H]5C[C@H](O[C@@]5(C)C3)[C@H]4[C@](C)(CCC(=O)Nc3c(O)ccc(C(=O)O)c3O)C2=O)c1`, the “antibacterial activity” value was “Active”.

Turning to `C[C@]12C[C@@]34C=C(Sc5cccc(C#Cc6ccc(Cl)cc6)c5)C(=O)[C@@](C)(CCC(=O)Nc5c(O)ccc(C(=O)O)c5O)[C@@H]3[C@H](C[C@@H]1C4)O2`, the “antibacterial activity” value was “Active”.

For the compound `C[C@]12C[C@@]34C=C(Sc5cccc(C#Cc6cccc(N)c6)c5)C(=O)[C@@](C)(CCC(=O)Nc5c(O)ccc(C(=O)O)c5O)[C@@H]3[C@H](C[C@@H]1C4)O2`, the “antibacterial activity” value was “Active”.

For `C[C@]12C[C@@]34C=C(SCc5ccco5)C(=O)[C@@](C)(CCC(=O)Nc5c(O)ccc(C(=O)O)c5O)[C@@H]3[C@H](C[C@@H]1C4)O2`, the “antibacterial activity” value was “Active”.

With `Cc1occc1SC1=C[C@]23C[C@H]4C[C@H](O[C@@]4(C)C2)[C@H]3[C@](C)(CCC(=O)Nc2c(O)ccc(C(=O)O)c2O)C1=O`, the “antibacterial activity” value was “Active”.

In the case of `CCCCc1ccc(SC2=C[C@]34C[C@H]5C[C@H](O[C@@]5(C)C3)[C@H]4[C@](C)(CCC(=O)Nc3c(O)ccc(C(=O)O)c3O)C2=O)cc1`, the “antibacterial activity” value was “Active”.

As for `C[C@]12C[C@@]34C=C(Sc5ccc(/C=C/C(=O)O)cc5)C(=O)[C@@](C)(CCC(=O)Nc5c(O)ccc(C(=O)O)c5O)[C@@H]3[C@H](C[C@@H]1C4)O2`, the “antibacterial activity” value was “Active”.

As to `C[C@]12C[C@@]34C=C(Sc5cc(Cl)cc(Cl)c5)C(=O)[C@@](C)(CCC(=O)Nc5c(O)ccc(C(=O)O)c5O)[C@@H]3[C@H](C[C@@H]1C4)O2`, the “antibacterial activity” value was “Active”.

Regarding `C[C@]12C[C@@]34C=C(Sc5ccc(N)cc5)C(=O)[C@@](C)(CCC(=O)Nc5c(O)ccc(C(=O)O)c5O)[C@@H]3[C@H](C[C@@H]1C4)O2`, the “antibacterial activity” value was “Active”.

As for `C[C@]12C[C@@]34C=C(Sc5cccc(Cl)c5)C(=O)[C@@](C)(CCC(=O)Nc5c(O)ccc(C(=O)O)c5O)[C@@H]3[C@H](C[C@@H]1C4)O2`, the “antibacterial activity” value is “Active”.

Regarding `C[C@]12C[C@@]34C=C(Sc5cccc6ccccc56)C(=O)[C@@](C)(CCC(=O)Nc5c(O)ccc(C(=O)O)c5O)[C@@H]3[C@H](C[C@@H]1C4)O2`, the “antibacterial activity” value is “Active”.

With `C[C@]12C[C@@]34C=C(Sc5ccc(C#Cc6ccccc6)cc5)C(=O)[C@@](C)(CCC(=O)Nc5c(O)ccc(C(=O)O)c5O)[C@@H]3[C@H](C[C@@H]1C4)O2`, the “antibacterial activity” value is “Active”.

In the case of `CNC(=O)/C=C/c1ccc(SC2=C[C@]34C[C@H]5C[C@H](O[C@@]5(C)C3)[C@H]4[C@](C)(CCC(=O)Nc3c(O)ccc(C(=O)O)c3O)C2=O)cc1`, the “antibacterial activity” value is “Active”.

`COC(=O)/C=C/c1cccc(SC2=C[C@]34C[C@H]5C[C@H](O[C@@]5(C)C3)[C@H]4[C@](C)(CCC(=O)Nc3c(O)ccc(C(=O)O)c3O)C2=O)c1`: the “antibacterial activity” value is “Active”.

Regarding `C[C@]12C[C@@]34C=C(Sc5ccccc5C(=O)O)C(=O)[C@@](C)(CCC(=O)Nc5c(O)ccc(C(=O)O)c5O)[C@@H]3[C@H](C[C@@H]1C4)O2`, the “antibacterial activity” value was “Active”.

In the case of `C[C@]12C[C@@]34C=C(Sc5ccc(C#CCN)cc5)C(=O)[C@@](C)(CCC(=O)Nc5c(O)ccc(C(=O)O)c5O)[C@@H]3[C@H](C[C@@H]1C4)O2`, the “antibacterial activity” value was “Active”.

Take `CCCCC#Cc1cccc(SC2=C[C@]34C[C@H]5C[C@H](O[C@@]5(C)C3)[C@H]4[C@](C)(CCC(=O)Nc3c(O)ccc(C(=O)O)c3O)C2=O)c1`: the “antibacterial activity” value is “Active”.

With `C[C@]12C[C@@]34C=C(Sc5ccc(-c6ccccc6F)cc5)C(=O)[C@@](C)(CCC(=O)Nc5c(O)ccc(C(=O)O)c5O)[C@@H]3[C@H](C[C@@H]1C4)O2`, the “antibacterial activity” value is “Active”.
